The NIST ThermoML archive (doi:10.1016/j.fluid.2006.05.015)
Numbers after ± are expanded uncertainties.

Conditions: Fluid (supercritical or subcritical phases), Constant-volume piezometry

O [water]
Conditions | mass density [kg/m3]
299.25 K, 5182 kPa | 999.2 ± 1.2
299.25 K, 31060 kPa | 1010.4 ± 1.2
349.12 K, 8540 kPa | 977.86 ± 1.2
349.12 K, 24440 kPa | 984.93 ± 1.2
399.57 K, 3183 kPa | 939.45 ± 1.1
399.57 K, 30090 kPa | 952.6 ± 1.2
438.94 K, 6455 kPa | 905.35 ± 1.1
438.94 K, 27860 kPa | 917.35 ± 1.2
494.18 K, 8890 kPa | 844.81 ± 1.1
494.18 K, 29240 kPa | 859.91 ± 1.1
555.43 K, 9803 kPa | 751.67 ± 0.95
555.43 K, 27940 kPa | 777.34 ± 1
617.27 K, 16300 kPa | 603.42 ± 0.79
617.27 K, 28080 kPa | 653.82 ± 0.88
